Here are results for six molecules from patent US12486290B2, “Isoindolinone and indazole compounds for the degradation of EGFR” (C4 THERAPEUTICS, INC., priority 2019, dated 2025).

In assay [1] the target is T1, EGFR L858R (NCI-H3255 cells) (Homo sapiens, UniProt P00533, L858R).
T1 construct: NCI-H3255 (harboring EGFR heterozygous L858R mutation); host or cells: NCI-H3255
Description: EGFR (L858R) degradation analysis, Total EGFR (L858R) HTRF, NCI-H3255 cells. The assay is classed as cell-based. The conditions noted are these: 6 hours. The source says:
NCI-H1975 (harboring EGFR heterozygous T790M/L858R mutations) and NCI-H3255 (harboring EGFR heterozygous L858R mutation) were purchased from ATCC and NCI, respectively. NCI-H1975+CS (harboring EGFR heterozygous T/790M/L858R/C797S mutations) was generated using CRISPR technology to introduce the additional C797S mutation by Horizon Discovery. RPMI 1640 no-phenol red medium and fetal bovine serum (FBS) were purchased from Gibco (Grand Island, NY, USA). Cell culture flasks and 384-well microplates were acquired from VWR (Radnor, PA, USA). Total EGFR (L858R) HTRF assay kits were purchased from Cisbio (Bedford, MA, USA).
Degradation of EGFR protein containing L858R mutation was determined based on quantification of FRET signal using Total EGFR (L858R) HTRF assay kit. Test compounds were added to the 384-well plate from a top concentration of 10 μM with 11 points, half log titration in duplicates. NCI-H1975, NCI-H1975+CS or NCI-H3255 cells were added into 384-well plates at a cell density of 10000, 10000 or 1000 cells per well, respectively. The plates were kept at 37° C. with 5% CO2 for 6 hours. Cells treated in the absence of the test compound were the negative control. Positive control was set by wells containing all reagents but no cells. FRET signal was acquired on EnVision™ Multilabel Reader (PerkinElmer, Santa Clara, CA, USA).
(TR-FRET usually uses a lanthanide donor and a delayed reading to cut background.)

The target of assay [2] is T2, EGFR T790M/L858R (NCI-H1975 cells) (Homo sapiens, UniProt P00533, L858R/T790M).
T2 construct: NCI-H1975 (harboring EGFR heterozygous T790M/L858R mutations); host or cells: NCI-H1975
Description: EGFR (L858R) degradation analysis, Total EGFR (L858R) HTRF, NCI-H1975 cells. The assay is classed as cell-based. The conditions noted are these: 6 hours. An outline of the steps:
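Cells (10000/well NCI-H1975 and NCI-H1975+CS, 1000/well NCI-H3255) treated with 11-point half-log titrations from 10 μM top, in duplicate, for 6 hours at 37° C., 5% CO2. Total EGFR (L858R) quantified by HTRF FRET; untreated cells as negative and cell-free wells as positive control.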

T1 sequence (P00533 25-1210 L858R): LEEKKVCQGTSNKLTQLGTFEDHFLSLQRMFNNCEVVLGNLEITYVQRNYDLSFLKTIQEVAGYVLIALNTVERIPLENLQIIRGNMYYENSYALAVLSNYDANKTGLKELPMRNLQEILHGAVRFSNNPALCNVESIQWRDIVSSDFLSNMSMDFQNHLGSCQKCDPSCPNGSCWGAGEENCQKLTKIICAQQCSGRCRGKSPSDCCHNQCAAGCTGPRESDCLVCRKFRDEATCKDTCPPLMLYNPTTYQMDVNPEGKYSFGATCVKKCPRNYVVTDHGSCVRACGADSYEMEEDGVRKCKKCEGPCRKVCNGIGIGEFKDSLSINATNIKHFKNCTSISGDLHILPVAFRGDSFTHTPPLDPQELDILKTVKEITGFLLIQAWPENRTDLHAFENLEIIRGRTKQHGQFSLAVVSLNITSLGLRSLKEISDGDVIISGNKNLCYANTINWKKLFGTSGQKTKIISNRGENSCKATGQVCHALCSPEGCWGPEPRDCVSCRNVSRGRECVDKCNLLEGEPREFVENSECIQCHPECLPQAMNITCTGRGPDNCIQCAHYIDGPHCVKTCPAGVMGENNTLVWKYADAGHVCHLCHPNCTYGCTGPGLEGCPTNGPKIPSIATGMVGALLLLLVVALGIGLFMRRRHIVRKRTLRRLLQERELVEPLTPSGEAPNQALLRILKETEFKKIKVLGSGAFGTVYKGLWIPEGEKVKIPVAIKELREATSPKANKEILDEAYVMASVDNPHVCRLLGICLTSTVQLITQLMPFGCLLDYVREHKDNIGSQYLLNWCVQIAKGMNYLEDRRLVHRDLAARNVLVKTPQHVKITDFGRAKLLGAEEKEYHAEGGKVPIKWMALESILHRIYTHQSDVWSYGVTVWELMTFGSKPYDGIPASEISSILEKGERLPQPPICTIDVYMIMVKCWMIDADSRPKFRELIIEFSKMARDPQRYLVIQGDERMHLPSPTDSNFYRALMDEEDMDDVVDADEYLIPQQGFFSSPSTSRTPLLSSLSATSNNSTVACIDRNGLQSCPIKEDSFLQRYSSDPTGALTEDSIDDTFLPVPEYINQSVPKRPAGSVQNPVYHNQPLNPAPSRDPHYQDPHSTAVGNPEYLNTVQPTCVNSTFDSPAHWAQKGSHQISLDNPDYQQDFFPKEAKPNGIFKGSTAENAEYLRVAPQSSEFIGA
T2 sequence (P00533 25-1210 T790M/L858R): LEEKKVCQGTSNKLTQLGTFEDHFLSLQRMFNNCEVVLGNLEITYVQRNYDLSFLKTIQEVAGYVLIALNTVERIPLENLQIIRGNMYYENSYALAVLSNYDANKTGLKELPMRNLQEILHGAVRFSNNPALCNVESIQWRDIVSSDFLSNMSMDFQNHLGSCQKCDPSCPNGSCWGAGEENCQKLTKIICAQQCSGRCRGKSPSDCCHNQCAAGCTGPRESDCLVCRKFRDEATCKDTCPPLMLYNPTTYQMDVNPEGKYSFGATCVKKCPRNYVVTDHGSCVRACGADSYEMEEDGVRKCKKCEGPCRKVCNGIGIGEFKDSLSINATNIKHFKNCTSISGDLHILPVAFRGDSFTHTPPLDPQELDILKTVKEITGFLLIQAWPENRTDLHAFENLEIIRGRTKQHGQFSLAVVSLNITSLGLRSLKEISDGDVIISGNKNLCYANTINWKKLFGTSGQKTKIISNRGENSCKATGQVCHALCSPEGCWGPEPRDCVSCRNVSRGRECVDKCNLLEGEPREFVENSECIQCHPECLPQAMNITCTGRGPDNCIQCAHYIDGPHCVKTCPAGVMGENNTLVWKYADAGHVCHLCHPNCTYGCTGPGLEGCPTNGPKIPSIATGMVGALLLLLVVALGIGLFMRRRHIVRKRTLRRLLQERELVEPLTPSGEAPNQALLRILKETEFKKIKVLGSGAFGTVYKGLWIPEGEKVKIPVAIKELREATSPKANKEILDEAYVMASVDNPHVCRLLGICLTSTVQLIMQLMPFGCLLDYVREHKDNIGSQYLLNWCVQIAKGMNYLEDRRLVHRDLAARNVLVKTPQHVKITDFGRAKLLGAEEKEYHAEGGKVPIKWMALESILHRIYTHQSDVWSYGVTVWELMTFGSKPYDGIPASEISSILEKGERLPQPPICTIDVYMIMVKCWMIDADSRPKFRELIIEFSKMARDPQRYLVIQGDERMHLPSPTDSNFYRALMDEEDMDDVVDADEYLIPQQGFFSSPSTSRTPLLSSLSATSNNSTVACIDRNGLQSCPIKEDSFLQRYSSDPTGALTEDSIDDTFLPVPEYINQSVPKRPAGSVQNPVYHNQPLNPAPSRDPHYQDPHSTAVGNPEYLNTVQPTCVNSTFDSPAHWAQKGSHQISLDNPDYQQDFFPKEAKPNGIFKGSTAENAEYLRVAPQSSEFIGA

Consider `O=C1CCC(Nc2ccc(C3CCN(CC(=O)N4CCN(c5ccc(-c6cc(F)c7cn(C(C(=O)Nc8nccs8)c8ncn9c8CCC9)nc7c6)cn5)CC4)CC3)nc2)C(=O)N1` (stereo not drawn) [Compound 66, 2-(6,7-dihydro-5H-pyrrolo[1,2-c]imidazol-1-yl)-2-[6-[6-[4-[2-[4-[5-[(2,6-dioxo-3-piperidyl)amino]-2-pyridyl]-1-piperidyl]acetyl]piperazin-1-yl]-3-pyridyl]-4-fluoro-indazol-2-yl]-N-thiazol-2-yl-acetamide], for which the DC50 (as a rule, the midpoint of the concentration-degradation curve) is 31 nM in assay [1] and 33 nM in assay [2].

For the molecule `O=C1CCC(Nc2ccc(C3CCN(CC(=O)N4CCN(Cc5ccc(-c6cc(F)c7c(c6)C(=O)N(C(C(=O)Nc6nccs6)c6ncn8c6CCC8)C7)cc5)CC4)CC3)cc2)C(=O)N1` (stereo not drawn) [Compound 56, 2-(6,7-dihydro-5H-pyrrolo[1,2-c]imidazol-1-yl)-2-[6-[4-[[4-[2-[4-[4-[(2,6-dioxo-3-piperidyl)amino]phenyl]-1-piperidyl]acetyl]piperazin-1-yl]methyl]phenyl]-4-fluoro-1-oxo-isoindolin-2-yl]-N-thiazol-2-yl-acetamide], the DC50 was 14 nM in assay [1] and 20 nM in assay [2].

Take `O=C1CC[C@H](Nc2ccc(C3CCN(CC(=O)N4CCC(Cc5ccc(-c6cc(F)c7c(c6)C(=O)N(C(C(=O)Nc6nccs6)c6ncn8c6CCC8)C7)cc5)CC4)CC3)c(F)c2)C(=O)N1` (stereo partly drawn) [Compound 60, 2-(6,7-dihydro-5H-pyrrolo[1,2-c]imidazol-1-yl)-2-[6-[4-[[1-[2-[4-[4-[[(3S)-2,6-dioxo-3-piperidyl]amino]-2-fluoro-phenyl]-1-piperidyl]acetyl]-4-piperidyl]methyl]phenyl]-4-fluoro-1-oxo-isoindolin-2-yl]-N-thiazol-2-yl-acetamide]: the DC50 in assay [1] came to 28 nM; in assay [2] it was 52 nM.

For the molecule `Cn1nc(N2CCC(=O)NC2=O)c2ccc(C3CCN(CC(=O)N4CC5(C4)CN(c4ccc(-c6cc(F)c7c(c6)C(=O)N(C(C(=O)Nc6nccs6)c6ncn8c6CCC8)C7)cc4)C5)CC3)cc21` (stereo not drawn) [Compound 49, 2-(6,7-dihydro-5H-pyrrolo[1,2-c]imidazol-1-yl)-2-[6-[4-[2-[2-[4-[3-(2,4-dioxohexahydropyrimidin-1-yl)-1-methyl-indazol-6-yl]-1-piperidyl]acetyl]-2,6-diazaspiro[3.3]heptan-6-yl]phenyl]-4-fluoro-1-oxo-isoindolin-2-yl]-N-thiazol-2-yl-acetamide], the results for the DC50 in assay [1] and in assay [2] were 10 nM and 18 nM, respectively.

On to `O=C1CCC(Nc2ccc(C3CCN(CC(=O)N4CCN(c5ccc(-c6cc(F)c7c(c6)C(=O)N(C(C(=O)Nc6nccs6)c6ncn8c6CCC8)C7)cc5)CC4)CC3)c(F)c2)C(=O)N1` (stereo not drawn) [Compound 12, 2-(6,7-dihydro-5H-pyrrolo[1,2-c]imidazol-1-yl)-2-[6-[4-[4-[2-[4-[4-[(2,6-dioxo-3-piperidyl)amino]-2-fluoro-phenyl]-1-piperidyl]acetyl]piperazin-1-yl]phenyl]-4-fluoro-1-oxo-isoindolin-2-yl]-N-thiazol-2-yl-acetamide], for which the 50% degradation concentration (DC50) in assay [1] came out at 11 nM; in assay [2], 39 nM.

Regarding `O=C1CCC(Nc2ccc(C3CCN(CC(=O)N4CCN(c5ccc(-c6cc(F)c7c(c6)C(=O)N(C(C(=O)Nc6nccs6)c6ncn8c6CCC8)C7)cc5)CC4)CC3)nc2)C(=O)N1` (stereo not drawn) [Compound 11, 2-(6,7-dihydro-5H-pyrrolo[1,2-c]imidazol-1-yl)-2-[6-[4-[4-[2-[4-[5-[(2,6-dioxo-3-piperidyl)amino]-2-pyridyl]-1-piperidyl]acetyl]piperazin-1-yl]phenyl]-4-fluoro-1-oxo-isoindolin-2-yl]-N-thiazol-2-yl-acetamide], the half-maximal degradation concentration (DC50) was determined as 21 nM in assay [1] and 20 nM in assay [2].
